Measurements: patent US6608086B2, “Dihydropyridines and new uses thereof” (Synaptic Pharmaceutical Corporation, priority 1993, dated 2003)
Where a name gives a salt, the structure may show the parent alone. Read-outs that look alike come from different tables or passages of the source.

Key:
[1] = molecular target: T1, α1A Human Adrenergic Receptor (Homo sapiens, UniProt P25100); assay: Radioligand binding, [3H]prazosin, cloned human α1A adrenergic receptor
T1 construct: The entire coding region of α1A (1719 bp); expressed in transfected cells
T1 sequence (P25100 1-572): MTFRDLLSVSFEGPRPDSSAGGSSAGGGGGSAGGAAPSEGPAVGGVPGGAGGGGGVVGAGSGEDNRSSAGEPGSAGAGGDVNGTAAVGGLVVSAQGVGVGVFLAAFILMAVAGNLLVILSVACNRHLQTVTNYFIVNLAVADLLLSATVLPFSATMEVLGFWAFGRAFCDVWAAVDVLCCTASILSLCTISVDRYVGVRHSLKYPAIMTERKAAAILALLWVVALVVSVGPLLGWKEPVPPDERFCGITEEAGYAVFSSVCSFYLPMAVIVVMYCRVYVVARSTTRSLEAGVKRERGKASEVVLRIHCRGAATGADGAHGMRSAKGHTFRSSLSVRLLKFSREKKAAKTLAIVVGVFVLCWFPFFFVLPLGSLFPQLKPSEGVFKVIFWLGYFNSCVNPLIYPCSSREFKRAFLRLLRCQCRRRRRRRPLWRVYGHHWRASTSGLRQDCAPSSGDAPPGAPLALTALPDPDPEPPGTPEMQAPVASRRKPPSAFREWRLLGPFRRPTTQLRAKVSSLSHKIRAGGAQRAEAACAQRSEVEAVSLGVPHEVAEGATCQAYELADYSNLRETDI
In short: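 Membranes from LM(tk−) cells transfected with human α1A were incubated with 0.5 nM [3H]prazosin in 50 mM Tris-HCl, 1 mM MgCl2, 0.1% ascorbic acid, pH 7.5, for 20 min at 37° C. Nonspecific binding was defined with 10 μM phentolamine. Bound ligand was separated by GF/B filtration.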

[2] = molecular target: T2, α1C Human Adrenergic Receptor (Homo sapiens, UniProt P35348); assay: Radioligand binding, [3H]prazosin, cloned human α1C adrenergic receptor
T2 construct: The entire coding region of α1C (1401 bp); expressed in transfected cells
T2 sequence (P35348 1-466): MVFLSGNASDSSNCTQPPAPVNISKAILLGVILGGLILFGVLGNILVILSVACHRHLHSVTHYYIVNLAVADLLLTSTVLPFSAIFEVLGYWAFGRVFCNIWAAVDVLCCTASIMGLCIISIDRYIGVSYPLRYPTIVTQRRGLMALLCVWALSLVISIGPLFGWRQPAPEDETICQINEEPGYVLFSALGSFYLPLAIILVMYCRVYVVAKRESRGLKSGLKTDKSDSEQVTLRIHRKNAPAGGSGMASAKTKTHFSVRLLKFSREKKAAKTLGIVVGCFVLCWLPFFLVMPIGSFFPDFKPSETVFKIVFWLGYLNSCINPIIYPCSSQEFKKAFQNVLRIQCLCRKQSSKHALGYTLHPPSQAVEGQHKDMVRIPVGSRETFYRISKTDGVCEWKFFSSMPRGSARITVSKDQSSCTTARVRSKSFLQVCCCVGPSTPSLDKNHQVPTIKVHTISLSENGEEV
In short: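 Stably transfected mouse LM(tk−) fibroblast membranes bearing the cloned human α1C adrenoceptor served as receptor source. Specific binding was taken as the portion of 0.5 nM [3H]prazosin displaceable by 10 μM phentolamine after 20 min at 37° C., pH 7.5, in Mg2+/ascorbate-containing Tris buffer.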

[3] = molecular target: T3, α2C receptor (Homo sapiens, UniProt P18825); assay: Competition binding, [3H]rauwolscine, human α2C receptor
T3 construct: host or cells: LM(tk-) cells, line L-α2C
T3 sequence (P18825 1-462): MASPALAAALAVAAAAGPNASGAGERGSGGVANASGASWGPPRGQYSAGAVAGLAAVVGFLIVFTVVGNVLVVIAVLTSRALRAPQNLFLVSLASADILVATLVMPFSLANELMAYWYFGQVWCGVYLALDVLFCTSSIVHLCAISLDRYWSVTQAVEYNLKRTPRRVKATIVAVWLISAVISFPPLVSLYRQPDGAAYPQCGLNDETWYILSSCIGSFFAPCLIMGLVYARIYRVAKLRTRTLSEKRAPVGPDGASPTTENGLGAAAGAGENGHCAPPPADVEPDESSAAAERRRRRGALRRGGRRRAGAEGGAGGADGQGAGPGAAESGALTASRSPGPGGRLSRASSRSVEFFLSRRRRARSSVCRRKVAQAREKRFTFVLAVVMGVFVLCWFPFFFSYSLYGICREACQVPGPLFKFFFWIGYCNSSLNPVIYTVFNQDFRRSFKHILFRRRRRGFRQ
In short: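 Lysates of LM(tk−) cells stably expressing each α2 subtype were suspended in 25 mM glycylglycine buffer (pH 7.6 at room temperature). Equilibrium competition binding used 0.5 nM [3H]rauwolscine, with nonspecific binding defined by 10 μM phentolamine; bound radioligand was separated by GF/B filtration.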

[4] = cloned human α1C receptor, LM(tk−) cell membranes
[5] = [3H]prazosin, cloned human receptor, LM(tk-) cell membranes, mean, read-out: PKi alpha-1 1a (converted)
[6] = cloned human receptor, LM(tk-) cell membranes, mean, read-out: PKi alpha-1 1c (converted)
[7] = [3H]rauwolscine, human receptor, LM(tk-) cell lysates, mean, read-out: PKi alpha-2 2c (converted)
[8] = PKi alpha-1 1a, [3H]prazosin, cloned human receptor, LM(tk-) cell membranes, mean
[9] = PKi alpha-1 1c, cloned human receptor, LM(tk-) cell membranes, mean

CNC(=O)C1=C(C)NC(C)=C(C(=O)NCCCN2CCC(c3ccccc3)(c3ccccc3)CC2)C1c1ccc([N+](=O)[O-])cc1 (racemic) [(±)-119, 1,4-Dihydro-2,6-dimethyl-5-(N-Methyl) carboxamido-4-(4-nitrophenyl)-3-{N-[3-(4,4-diphenylpiperidin-1-yl)propyl]}carboxamidopyridine]
pKi alpha-1 1a [1]: 6.21 | pKi alpha-1 1c [2, 4]: 8.5 | pKi alpha-2 2c [3]: 6.49

CCC1=C(C(=O)NC)C(c2ccc([N+](=O)[O-])cc2)C(C(=O)NCCCN2CCC(C(=O)OC)(c3ccccc3)CC2)=C(CCCCOC)N1 (stereo not drawn) [Example 174, 6-Ethyl-1,4-dihydro-2-(4-methoxybutyl)-3-{N-[3-(4-methoxycarbonyl-4-phenylpiperidin-1-yl)propyl]}carboxamido-5-(N-methyl)carboxamido-4-(4-nitrophenyl)pyridine]
Ki [1, 5]: 3.98 µM | Ki [2, 6]: 0.00407 µM | Ki [3, 7]: 0.676 µM

CC1=C(C(=O)NCCCN2CCC(c3ccccc3)(c3ccccc3)CC2)C(c2ccc([N+](=O)[O-])cc2)C(C(=O)N(C)C)=C(C)N1 (stereo not drawn) [Example 39, 1,4-Dihydro-2,6-dimethyl-3-(N,N-dimethyl) carboxamido-4-(4-nitrophenyl)-5-{N-[3-(4,4-diphenylpiperidin-1-yl)propyl]}carboxamidopyridine]
pKi alpha-1 1a ([1]; [3H]prazosin, cloned human receptor in LM(tk-) cell membranes, SEM and n in lines below): 5.77 | pKi alpha-1 1c ([2]; cloned human receptor in LM(tk-) cell membranes, SEM and n in lines below): 7.23 | pKi alpha-2 2c ([3]; [3H]rauwolscine, LM(tk-) cell line L-α2C, SEM and n in lines below): 6.09

COC(=O)C1=C(C)NC(C)=C(C(=O)OCCCN2CCCCC2)C1c1ccc([N+](=O)[O-])cc1 (stereo not drawn) [Example 50, 1,4-Dihydro-5-methoxycarbonyl-2,6-dimethyl-4-(4-nitrophenyl)-3-[3-(piperidin-1-yl)propoxy]carbonylpyridine hydrochloride etherate]
Ki ([1]; [3H]prazosin, cloned human receptor in LM(tk-) cell membranes, SEM and n in lines below, read-out: pKi alpha-1 1a (converted)): 1.95 µM | Ki ([2]; cloned human receptor in LM(tk-) cell membranes, SEM and n in lines below, read-out: pKi alpha-1 1c (converted)): 0.0851 µM | Ki ([3]; [3H]rauwolscine, LM(tk-) cell line L-α2C, SEM and n in lines below, read-out: pKi alpha-2 2c (converted)): 0.661 µM

COC(=O)C1(c2ccccc2)CCN(CCCNC(=O)C2=C(CCCCN)NC(C)=C(C(N)=O)C2c2ccc([N+](=O)[O-])cc2)CC1 (stereo not drawn) [Example 177, 2-(4-Aminobutyl)-5-carboxamido-1,4-dihydro-3-{N-[3-(4-methoxycarbonyl-4-phenylpiperidin-1-yl)propyl]}carboxamido-6-methyl-4-(4-nitrophenyl)pyridine]
Ki ([1]; PKi alpha-1 1a): 1.41 µM | Ki [2, 6]: 0.00468 µM | Ki ([3]; PKi alpha-2 2c): 0.832 µM

COC(=O)C1(c2ccccc2)CCN(CCCNC(=O)C2=C(CCCCN)NC(C)=C(C(C)=O)C2c2ccc([N+](=O)[O-])cc2)CC1 (stereo not drawn) [Example 178, 5-Acetyl-2-(4-aminobutyl)-1,4-dihydro-3-{N-[3-(4-methoxycarbonyl-4-phenylpiperidin-1-yl)propyl]}carboxamido-6-methyl-4-(4-nitrophenyl) pyridine]
Ki [1, 5]: 0.832 µM | Ki [2, 6]: 0.00257 µM | Ki [3, 7]: 0.398 µM

CCC1=C(C(=O)NC)C(c2ccc([N+](=O)[O-])cc2)C(C(=O)NCCCN2CCC(C(=O)OC)(c3ccccc3)CC2)=C(CC)N1 (stereo not drawn) [Example 179, 2,6-Diethyl-1,4-dihydro-3-{N-[3-(4-methoxycarbonyl-4-phenyl-piperidin-1-yl)propyl]}carboxamido-5-(N-methyl)carboxamido-4-(4-nitrophenyl)pyridine]
Ki ([1]; PKi alpha-1 1a): 4.17 µM | Ki [2, 6]: 0.00331 µM | Ki ([3]; PKi alpha-2 2c): 1.45 µM

CNC(=O)C1=C(C)NC(C)=C(C(=O)NCCCN2CCC(c3ccccc3)(c3ccccc3)CC2)C1c1ccc2c(c1)OCCO2 (stereo not drawn) [Example 163]
Ki [1, 8]: 0.776 µM | Ki [2, 9]: 0.0186 µM | Ki ([3]; PKi alpha-2 2c, [3H]rauwolscine, human receptor, LM(tk-) cell lysates, mean): 1.23 µM

CCC1=C(C(=O)NC)C(c2ccc([N+](=O)[O-])cc2)C(C(=O)NCCCN2CCC(c3ccccc3)(c3ccccc3)CC2)=C(CCCCN)N1 (stereo not drawn) [Example 172, 2-(4-Aminobutyl)-6-ethyl-1,4-dihydro-5-(N-methyl)carboxamido-4-(4-nitrophenyl)-3-{N-[3-(4,4-diphenylpiperidin-1-yl)propyl]}carboxamidopyridine]
Ki [1, 8]: 0.813 µM | Ki [2, 9]: 0.00282 µM | Ki [3, 7]: 0.692 µM

CCC1=C(C(=O)NC)C(c2ccc([N+](=O)[O-])cc2)C(C(=O)NCCCN2CCC(c3ccccc3)(c3ccccc3)CC2)=C(COCCN)N1 (stereo not drawn) [Example 225, 2-((2-Aminoethyl)oxy)methyl-6-ethyl-1,4-dihydro-5-N-methylcarboxamido-4-(4-nitro)phenyl-3-(3-(N-(4,4-diphenylpiperidin-1-yl)propyl))carboxamidopyridine]
Ki ([1]; PKi alpha-1 1a): 1.62 µM | Ki [2, 6]: 0.00398 µM | Ki ([3]; PKi alpha-2 2c): 0.417 µM

CCOC(=O)C1=C(CNCCCN2CCC(c3ccccc3)(c3ccccc3)CC2)NC(C)=C(C(=O)OC)C1c1ccc([N+](=O)[O-])cc1.Cl.O (stereo not drawn) [Example 90, 3-Ethoxycarbonyl-1,4-dihydro-5-methoxycarbonyl-6-methyl-4-(4-nitro)phenyl-2-(N-(3-(4,4,-diphenylpiperidin-1-yl)propyl)amino)methylpyridine, hydrochloride hydrate]
pKi alpha-1 1a ([1]; [3H]prazosin, cloned human α1A receptor, LM(tk−) cell membranes): 6.52 | pKi alpha-1 1c [2, 4]: 7.56 | pKi alpha-2 2c ([3]; [3H]rauwolscine, human α2C receptor, LM(tk−) cells): 6.79

CC(=O)C1=C(C)NC(COCCN)=C(C(=O)NCCCN2CCC(c3ccccc3)(c3ccccc3)CC2)C1c1ccc2c(c1)OCO2 (stereo not drawn) [Example 239, 5-Acetyl-2-((2-aminoethyl)oxy)methyl-1,4-dihydro-6-methyl-4-(3,4-methylenedioxy)phenyl-3-(N-(3-(4,4-dipheylpiperidin-1-yl)propyl))carboxamidopyridine]
Ki ([1]; PKi alpha-1 1a, [3H]prazosin, cloned human α1A receptor, LM(tk-) cell membranes): 0.275 µM | Ki ([2]; PKi alpha-1 1c, cloned human α1C receptor, LM(tk-) cell membranes): 0.00204 µM | Ki ([3]; PKi alpha-2 2c, [3H]rauwolscine, human α2C receptor, LM(tk-) cells): 0.263 µM

CCNC(=O)C1=C(CC)NC(CC)=C(C(=O)NCCCN2CCC(C(=O)OC)(c3ccccc3)CC2)C1c1ccc([N+](=O)[O-])cc1 (stereo not drawn) [Example 180, 2,6-Diethyl-1,4-dihydro-5-(N-ethyl)carboxamido-3-{N-[3-(4-methoxycarbonyl-4-phenylpiperidin-1-yl)propyl]}carboxamido-4-(4-nitrophenyl)pyridine]
Ki ([1]; PKi alpha-1 1a): 3.02 µM | Ki [2, 6]: 0.00363 µM | Ki ([3]; PKi alpha-2 2c): 5.75 µM
